According to EP0041047A2, “Dioxide compounds, process for their preparation and their use” (CIBA-GEIGY AG, priority 1980, dated 1981):

Columns and labels:
Morganella morganii 2359 = test: Protection of infected mice, subcutaneous application (ED50); format: in vivo; conditions: infecting microorganism Morganella morg. 2359
Text: (§1) Aufgrund dieser ß-Lactamase-inhibierenden Wirkung erhöhen die Verbindungen der vorliegenden Erfindung die Wirkung von β-Lactamantibiotika in vitro und in vivo, wie durch Vergleich der antibiotischen Wirkungen von Verbindungen der vorliegenden Erfindung und von β-Lactamantibiotika allein und in Kombination miteinander festgestellt werden kann. Beispielsweise liegen in vitro die MIC-Werte von 1:1 Kombinationen der erfindungsgemässen Verbindung der Formel (I), worin R1 Hydroxy und R2 Carboxy bedeuten, oder des Natriumsalzes davon mit Ampicillin, Cefsulodin (CGP7174/E) oder Cefotiam (CGP14221/E) gegen eine Reihe der obengenannten ß-Lactamase produzierenden Mikroorganismen signifikant niedriger als die MIC-Werte der Einzelverbindungen. In vivo, beispielsweise bei subcutaner Applikation an Mäusen, die mit ß-Lactamase produzierenden Mikroorganismen infiziert wurden, z.B. mit Escherichia coli 205 R^+ TEM oder Morganella morganii 2359, wurde eine signifikante Erniedrigung der ED50-Werte gegenüber denjenigen der Einzelkomponenten festgestellt. Einige Werte sind in der folgenden Tabelle zusammengestellt: […]

[1] = system: Escherichia coli 205 R^+ TEM; test: as above; format: in vivo, Maus
Text: as §1

Molecule	ED50 (Morganella morganii 2359; Morganella morganii, sc, Maus)	ED50 ([1]; Escherichia coli, sc, read-out: s.c. ED50 (mg/kg, Maus))	s.c. ED50 (mg/kg, Maus) (Morganella morganii 2359)	s.c. ED50 (mg/kg, Maus) ([1]; Maus, s.c., infecting microorganism Esch.coli: 205 RT)
CN(C)CCn1nnnc1SCC1=C(C(=O)O)N2C(=O)[C@@H](NC(=O)Cc3csc(N)n3)[C@H]2SC1 [B, Cefotiam]	75 mg/kg	70 mg/kg	–	–
(3R, 5R, 6R)-2,2-Dimethyl-6-hydroxymethylpenam-3-carbonsäure-1,1-dioxid-natriumsalz	–	–	100 mg/kg	100 mg/kg
